Drawing on US20230399319A1, “Acylsulfamide Compound and Pharmaceutical Use Therefor” (Japan Tobacco Inc., priority 2019, published 2023), this text covers IC50 and inhibition for 66 compounds.

Where “and” joins values, the source holds several entries; their conditions need not be identical. Identical values can stand only once. Where only a bound is given, the exact number is not on record here.

Sequence of NLRP3 inflammasome (Q96P20 whole entry): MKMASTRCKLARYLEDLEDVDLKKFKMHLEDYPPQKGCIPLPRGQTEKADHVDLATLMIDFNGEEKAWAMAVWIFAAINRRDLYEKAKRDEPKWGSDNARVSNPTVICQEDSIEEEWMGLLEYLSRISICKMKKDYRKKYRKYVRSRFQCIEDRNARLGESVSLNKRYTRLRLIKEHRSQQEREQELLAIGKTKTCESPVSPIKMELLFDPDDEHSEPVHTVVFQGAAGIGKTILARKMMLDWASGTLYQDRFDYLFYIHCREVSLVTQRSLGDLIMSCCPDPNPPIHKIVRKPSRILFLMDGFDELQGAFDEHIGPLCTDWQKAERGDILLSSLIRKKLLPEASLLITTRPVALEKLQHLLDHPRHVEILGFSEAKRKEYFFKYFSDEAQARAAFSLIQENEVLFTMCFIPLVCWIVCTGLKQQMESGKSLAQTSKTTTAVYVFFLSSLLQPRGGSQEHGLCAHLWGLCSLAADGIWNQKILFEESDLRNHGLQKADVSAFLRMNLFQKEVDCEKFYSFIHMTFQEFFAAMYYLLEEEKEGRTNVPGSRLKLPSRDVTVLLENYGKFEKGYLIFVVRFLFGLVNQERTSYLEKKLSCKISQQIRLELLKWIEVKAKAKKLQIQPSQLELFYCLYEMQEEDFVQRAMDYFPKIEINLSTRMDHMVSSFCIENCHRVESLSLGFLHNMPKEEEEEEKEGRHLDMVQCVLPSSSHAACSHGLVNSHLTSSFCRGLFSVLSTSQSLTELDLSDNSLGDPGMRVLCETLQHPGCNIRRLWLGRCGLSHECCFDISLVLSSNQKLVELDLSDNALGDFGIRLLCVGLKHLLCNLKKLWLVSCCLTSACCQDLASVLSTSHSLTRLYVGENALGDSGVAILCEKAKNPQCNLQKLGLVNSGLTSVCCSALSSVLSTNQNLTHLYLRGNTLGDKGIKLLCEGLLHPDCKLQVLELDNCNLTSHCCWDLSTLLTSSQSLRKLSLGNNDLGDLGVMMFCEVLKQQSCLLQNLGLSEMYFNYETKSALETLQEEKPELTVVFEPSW

One assay has as its target NLRP3 inflammasome (Homo sapiens (Human), UniProt Q96P20). The assay is described as follows: Evaluation of NLRP3 inflammasome inhibitory activity (inhibition of IL-1β production in THP1-Null cells, LPS/Nigericin).
Conditions: not given
`CCCN1CCN(S(=O)(=O)NC(=O)c2coc(Nc3cc(C(F)(F)F)ccc3C)n2)CCC1=O` [Example 2-320]: the half-maximal inhibitory concentration (IC50) is 600 nM.

In the case of `CC(C)C1COCCN1S(=O)(=O)NC(=O)c1cnc(Nc2c3c(cc4c2CCC4)CCC3)o1` (racemic) [Example 10], the concentration for half-maximal inhibition (IC50) came to 210 nM.

In the case of `Cc1ccc(C(F)(F)F)cc1Nc1nc(C(=O)NS(=O)(=O)N2CCCC(C)(C(=O)N(C)C)CC2)co1` (racemic) [Example 2-259], the IC50 is 87 nM.

With `COC1CN(S(=O)(=O)NC(=O)c2cnc(Nc3c4c(cc5c3CCC5)CCC4)o2)C1Cl` (racemic) [Example 12], half-maximal inhibition (IC50) was put at 4000 nM.

Take `CC1COCCN1S(=O)(=O)NC(=O)c1coc(Nc2c3c(cc4c2CCC4)CCC3)n1` (racemic) [Example 25]: 51 nM corresponded to half-maximal inhibition (IC50).

As for `Cc1ccc(C(F)(F)F)cc1Nc1nc(C(=O)NS(=O)(=O)N2CCC(O)C2)co1` (racemic) [Example 29], the IC50 was determined as 120 nM.

With `COC(=O)CC1COCCN1S(=O)(=O)NC(=O)c1coc(Nc2c3c(c(Cl)c4c2CCC4)CCC3)n1` (racemic) [Example 73], the IC50 is 160 nM.

As to `COC1COCCN(S(=O)(=O)NC(=O)c2coc(Nc3cc(C(F)(F)F)c(F)cc3C)n2)C1` (racemic) [Example 2-244], it took 51 nM to reach half-maximal inhibition (IC50).

As for `Cc1ccc(C(F)(F)F)cc1Nc1nc(C(=O)NS(=O)(=O)N2CCN(S(=O)(=O)CCCF)CC(F)C2)co1` (racemic) [Example 2-198], the IC50 turned out to be 29 nM.

Regarding `CCN(C)C(=O)C1CCCN(S(=O)(=O)NC(=O)c2coc(Nc3cc(C(F)(F)F)ccc3C)n2)CC1` (racemic) [Example 2-246], the half-inhibitory concentration (IC50) was found to be 67 nM.

The compound `CC(C)c1cn(C(C)C)nc1Nc1nc(C(=O)NS(=O)(=O)N2CCOCCC2C)co1` (racemic) [Example 2-184] gave an IC50 of 140 nM.

The compound `CCS(=O)(=O)N1CCN(S(=O)(=O)NC(=O)c2coc(Nc3cc(C)ccc3C)n2)CC(OC)C1` (racemic) [Example 2-252] had an IC50 of 190 nM.

Take `CN(C1CCOC1)S(=O)(=O)NC(=O)c1cnc(Nc2c3c(cc4c2CCC4)CCC3)o1` (racemic) [Example 24]: half-maximal inhibition (IC50) required 160 nM.

Staying with this assay, now noted: IL-1β production in THP1-Null cells, PMA/LPS primed, Nigericin 7.5 μmol/L.
Regarding `Cc1ccc(C(F)(F)F)cc1Nc1nc(C(=O)NS(=O)(=O)N2CCCC2)co1` [Example 76], the IC50 was found to be 92 nM.

`CN(C)S(=O)(=O)NC(=O)c1coc(Nc2c3c(c(Cl)c4c2CCC4)CCC3)n1` [Example 28] came in with an IC50 of 120 nM.

As for `O=C(NS(=O)(=O)N1CCCOCC1)c1cnc(Nc2c3c(cc4c2CCC4)CCC3)o1` [Example 4], inhibition was half-maximal at 81 nM (IC50).

Take `Cc1ccc(C(F)(F)F)cc1Nc1nc(C(=O)NS(=O)(=O)N2CC3CCC(C2)O3)co1` [Example 77]: the concentration for half-maximal inhibition (IC50) worked out at 56 nM.

`O=C(NS(=O)(=O)N1CCCC1)c1coc(Nc2c3c(c(Cl)c4c2CCC4)CCC3)n1` [Example 34]: the IC50 was 48 nM.

Compound `CN(C)S(=O)(=O)NC(=O)c1coc(Nc2c3c(c(F)c4c2CCC4)CCC3)n1` [Example 27] displayed a concentration for half-maximal inhibition (IC50) of 58 nM.

As to `O=C(NS(=O)(=O)N1CC2CCC(C1)O2)c1coc(Nc2c3c(c(F)c4c2CCC4)CCC3)n1` [Example 59], the midpoint of inhibition, the IC50, lay at 44 nM.

`CN(C)C(=O)C1CCN(S(=O)(=O)NC(=O)c2coc(Nc3c4c(c(F)c5c3CCC5)CCC4)n2)CC1` [Example 63] showed an IC50 of 900 nM.

Turning to `CN(C)S(=O)(=O)NC(=O)c1coc(Nc2c3c(cc4c2CCC4)CCC3)n1` [Example 13], the IC50 came out at 48 nM.

`O=C(NS(=O)(=O)N1CCCC1)c1coc(Nc2c3c(c(F)c4c2CCC4)CCC3)n1` [Example 35]: the half-maximal inhibitory concentration (IC50) is less than 30 nM.

`Cc1cc(Nc2nc(C(=O)NS(=O)(=O)N3CCOC(CS(=O)(=O)C(C)C)CC3)co2)c(C)cc1F` (stereo not drawn) [Example 3-004] yielded an IC50 of 26 nM.

Consider `Cc1ccc(C(F)(F)F)cc1Nc1nc(C(=O)NS(=O)(=O)N2CCOCC2)co1` [Example 70], for which the IC50 was less than 30 nM.

Turning to `CC(=O)N1CCN(S(=O)(=O)NC(=O)c2coc(Nc3c4c(c(Cl)c5c3CCC5)CCC4)n2)CC1` [Example 54], the half-maximal inhibitory concentration (IC50) turned out to be 170 nM.

`O=C(NS(=O)(=O)N1CCCn2nccc21)c1coc(Nc2c3c(c(Cl)c4c2CCC4)CCC3)n1` [Example 46] yielded a 50% inhibitory concentration (IC50) of 350 nM.

In turn, `O=C(NS(=O)(=O)N1CC2CCC(C1)O2)c1coc(Nc2c3c(c(Cl)c4c2CCC4)CCC3)n1` [Example 51] showed an IC50 of less than 30 nM.

`CC(C)N(C)S(=O)(=O)NC(=O)c1cnc(Nc2c3c(cc4c2CCC4)CCC3)o1` [Example 15] had an IC50 of less than 30 nM.

As for `Cc1ccc2c(c1Nc1nc(C(=O)NS(=O)(=O)N(C)C)co1)CCC2` [Example 69], the IC50 was 150 nM.

The same assay, now with this note: inhibition of IL-1β production in THP1-Null cells.
`CC(C)c1ccc(C(F)(F)F)nc1Nc1nc(C(=O)NS(=O)(=O)N2CCCOCC2)co1` [Example 2-125] came in with an IC50 of 250 nM.

`Cc1ccc(C(F)(F)F)cc1Nc1nc(C(=O)NS(=O)(=O)N(C)C)cs1` [Example 2-062] registered a half-maximal inhibitory concentration (IC50) of 48 nM.

Turning to `CCCCS(=O)(=O)N1CCCN(S(=O)(=O)NC(=O)c2coc(Nc3cc(C(F)(F)F)ccc3C)n2)CC1` [Example 2-126], the concentration for half-maximal inhibition (IC50) came out at 10 nM.

`Cc1ccc(C(F)(F)F)cc1Nc1nc(C(=O)NS(=O)(=O)N2CCOC(COC(F)F)CC2)co1` (stereo not drawn) [Example 2-324] showed a half-maximal inhibitory concentration (IC50) of 17 nM.

As to `Cc1cn(C(C)C)nc1Nc1nc(C(=O)NS(=O)(=O)N(C)C)co1` [Example 2-039], half-maximal inhibition (IC50) required 500 nM.

Regarding `CC(=O)NC1CCN(S(=O)(=O)NC(=O)c2coc(Nc3cc(C(F)(F)F)ccc3C)n2)CC1` [Example 2-033], the 50% inhibitory concentration (IC50) turned out to be 150 nM.

`Cc1ccc(C(F)(F)F)cc1Nc1nc(C(=O)NS(=O)(=O)N2CCc3nncn3CC2)co1` [Example 2-217] registered a half-inhibitory concentration (IC50) of less than 3000 nM.

For the compound `Cc1ccc(C(F)(F)F)cc1Nc1nc(C(=O)NS(=O)(=O)N2CCOC(C(=O)N(C)C)CC2)co1` (stereo not drawn) [Example 2-263], it took 79 nM to reach half-maximal inhibition (IC50).

`CCc1ccc(C(F)(F)F)cc1Nc1nc(C(=O)NS(=O)(=O)N2CCCOCC2)co1` [Example 2-059]: the IC50 was less than 30 nM.

As to `Cc1cnc(C(F)(F)F)cc1Nc1nc(C(=O)NS(=O)(=O)N(C)C)co1` [Example 2-074], the IC50 came to 11000 nM.

Turning to `Cc1ccc(C(F)F)cc1Nc1nc(C(=O)NS(=O)(=O)N(C)C)co1` [Example 2-010], the half-maximal inhibitory concentration (IC50) is 120 nM.

The compound `CCCCS(=O)(=O)N1CCCN(S(=O)(=O)NC(=O)c2coc(Nc3cc(C(F)F)ccc3C(C)C)n2)CC1` [Example 2-225] registered an IC50 of 36 nM.

Regarding `CC(C)c1nn(C(C)C)cc1Nc1nc(C(=O)NS(=O)(=O)N2CCCN(S(=O)(=O)CC(C)(C)C)CC2)co1` [Example 2-170], inhibition was half-maximal at 600 nM (IC50).

`Cc1ccc2c(c1Nc1nc(C(=O)NS(=O)(=O)N(C)C)cs1)CCC2` [Example 2-083] displayed an IC50 of 490 nM.

In turn, `COCCN(C(C)C)S(=O)(=O)NC(=O)c1coc(Nc2cc(C(F)(F)F)ccc2C)n1` [Example 2-048] gave a concentration for half-maximal inhibition (IC50) of less than 30 nM.

In turn, `CCCS(=O)(=O)N1CCCN(S(=O)(=O)NC(=O)c2coc(Nc3cc(CC)ccc3CC)n2)CC1` [Example 2-258] gave a concentration for half-maximal inhibition (IC50) of 18 nM.

Take `CCCS(=O)(=O)N1CCCN(S(=O)(=O)NC(=O)c2coc(Nc3cccc4ocnc34)n2)CC1` [Example 2-271]: the half-inhibitory concentration (IC50) is 940 nM.

The compound `CCCS(=O)(=O)N1CCCN(S(=O)(=O)NC(=O)c2coc(Nc3cc(C(F)F)ccc3C)n2)CC1` [Example 2-270] had a 50% inhibitory concentration (IC50) of 9.8 nM.

Consider `Cc1ccnc(N2CCCN(S(=O)(=O)NC(=O)c3coc(Nc4cc(C(F)(F)F)ccc4C)n3)CC2)n1` [Example 2-211], for which the IC50 is 16 nM.

For `COC1COCCN(S(=O)(=O)NC(=O)c2coc(Nc3cc(C(F)(F)F)ccc3C)n2)C1` (single isomer, unassigned) [Example 2-219], the half-maximal inhibitory concentration (IC50) stood at 29 nM.

Take `COCC1CCN(S(=O)(=O)NC(=O)c2coc(Nc3cc(C)ccc3C(C)C)n2)CCO1` (stereo not drawn) [Example 2-309]: the half-inhibitory concentration (IC50) came out at 39 nM.

`CCCS(=O)(=O)N1CCCN(S(=O)(=O)NC(=O)c2coc(Nc3cc(C)ccc3CC)n2)CC1` [Example 2-257]: the IC50 is 22 nM.

In turn, `CC(C)c1ccc(C(F)(F)F)c(Nc2nc(C(=O)NS(=O)(=O)N3CCCOCC3)co2)c1` [Example 2-176] yielded a 50% inhibitory concentration (IC50) of 18000 nM.

`CC(C)c1ccc2c(c1Nc1nc(C(=O)NS(=O)(=O)N(C)C)co1)CCC2` [Example 2-118] displayed a half-maximal inhibitory concentration (IC50) of 260 nM.

On to `O=C(NS(=O)(=O)N1CCOCC1)c1csc(Nc2c3c(cc4c2CCC4)CCC3)n1` [Example 2-012], for which the IC50 is 60 nM and < 30 nM.

For `COCC1CN(S(=O)(=O)NC(=O)c2coc(Nc3cc(C(F)(F)F)ccc3C)n2)CCO1` (stereo not drawn) [Example 2-049], the IC50 was determined as 46 nM.

The compound `CCOCC1CCN(S(=O)(=O)NC(=O)c2coc(Nc3nn(C(C)C)cc3C)n2)CCO1` (stereo not drawn) [Example 2-333] had an IC50 of 78 nM.

`COCC1CCN(S(=O)(=O)NC(=O)c2coc(Nc3cc(C)ccc3C)n2)CCO1` (stereo not drawn) [Example 2-299] yielded a half-maximal inhibitory concentration (IC50) of 190 nM.

In turn, `Cc1ccc(C(F)(F)F)nc1Nc1nc(C(=O)NS(=O)(=O)N(C)C)co1` [Example 2-087] yielded an IC50 of 550 nM.

`CCOCC1CCN(S(=O)(=O)NC(=O)c2coc(Nc3nn(C(C)C)cc3C(C)C)n2)CCO1` (stereo not drawn) [Example 2-344] returned an IC50 of 65 nM.

`CC(C)c1nn(C(C)C)cc1Nc1nc(C(=O)NS(=O)(=O)N2CCCOCC2)co1` [Example 2-090] gave an IC50 of 570 nM.

For the compound `Cc1ccc(C(F)(F)F)cc1Nc1nc(C(=O)NS(=O)(=O)NC(C)C)co1` [Example 2-046], the IC50 stood at 320 nM.

Still in this assay, the particulars now being: read-out: % inhibition at 3 μM.
Regarding `CC(C)Cc1nn(C(C)C)cc1Nc1nc(C(=O)NS(=O)(=O)N2CCCOCC2)co1` [Example 2-180], the inhibition at 3 µM is -3%.

Turning to `CC(C)c1nn2c(c1Nc1nc(C(=O)NS(=O)(=O)N3CCCOCC3)co1)OCCC2C` (stereo not drawn) [Example 2-248], the inhibition at 3 µM is 44%.

Regarding `CC(C)c1cnc(C(F)(F)F)nc1Nc1nc(C(=O)NS(=O)(=O)N2CCCOCC2)co1` [Example 2-144], the inhibition at 3 µM was found to be 23%.

Staying with this assay, now noted: read-out: Inhibition at 30 μM.
With `CC(C)c1cccc(C(C)C)c1Nc1ncc(C(=O)NS(=O)(=O)N(C)C)o1` [Example 20], the inhibition at 30 µM is 48%.
